One block for each molecule: values may come before it. Calls of active or inactive are those of the source. The rule behind the calls is not given here.
Legend:
[1] = test system: CWR22R; test: Antiproliferative activity against AR-positive human 22Rv1 cells harboring ARE14 construct assessed as growth inhibition after 72 hrs by resazurin dye based fluorescence assay; format: functional; conditions: 22Rv1, 72 h
[2] = test system: LNCaP C4-2; test: Antiproliferative activity against AR-positive human C4-2 cells assessed as growth inhibition after 72 hrs by resazurin dye based fluorescence assay; format: functional; conditions: LNCaP C4-2, 72 h
[3] = test system: VCaP; test: Antiproliferative activity against AR-positive human VCaP cells assessed as growth inhibition after 72 hrs by resazurin dye based fluorescence assay; format: functional
[4] = test system: PC-3; test: Antiproliferative activity against AR-negative human PC3 cells assessed as growth inhibition after 72 hrs by resazurin dye based fluorescence assay; format: functional; conditions: PC-3, 72 h
[5] = test system: CWR22R; test: Antiproliferative activity against AR-positive human 22Rv1 cells harboring ARE14 construct assessed as cell viability at 40 uM after 72 hrs by resazurin dye based fluorescence assay; format: functional; conditions: 22Rv1, 72 h, read-out: Activity
[6] = test system: LNCaP C4-2; test: Antiproliferative activity against AR-positive human C4-2 cells assessed as cell viability at 40 uM after 72 hrs by resazurin dye based fluorescence assay; format: functional; conditions: LNCaP C4-2, 72 h, read-out: Activity
[7] = test system: VCaP; test: Antiproliferative activity against AR-positive human VCaP cells assessed as cell viability at 40 uM after 72 hrs by resazurin dye based fluorescence assay; format: functional; conditions: read-out: Activity
[8] = test system: PC-3; test: Antiproliferative activity against AR-negative human PC3 cells assessed as cell viability at 40 uM after 72 hrs by resazurin dye based fluorescence assay; format: functional; conditions: PC-3, 72 h, read-out: Activity
[9] = biological target: T1, Androgen receptor (Homo sapiens) (UniProt P10275); test: Inhibition of AR transcriptional activity in AR-positive human 22Rv1 cells harboring ARE14 construct assessed as downregulation of NKX3.1 protein expression at 5 uM after 24 hrs by immunoblot analysis
T1 sequence (whole entry): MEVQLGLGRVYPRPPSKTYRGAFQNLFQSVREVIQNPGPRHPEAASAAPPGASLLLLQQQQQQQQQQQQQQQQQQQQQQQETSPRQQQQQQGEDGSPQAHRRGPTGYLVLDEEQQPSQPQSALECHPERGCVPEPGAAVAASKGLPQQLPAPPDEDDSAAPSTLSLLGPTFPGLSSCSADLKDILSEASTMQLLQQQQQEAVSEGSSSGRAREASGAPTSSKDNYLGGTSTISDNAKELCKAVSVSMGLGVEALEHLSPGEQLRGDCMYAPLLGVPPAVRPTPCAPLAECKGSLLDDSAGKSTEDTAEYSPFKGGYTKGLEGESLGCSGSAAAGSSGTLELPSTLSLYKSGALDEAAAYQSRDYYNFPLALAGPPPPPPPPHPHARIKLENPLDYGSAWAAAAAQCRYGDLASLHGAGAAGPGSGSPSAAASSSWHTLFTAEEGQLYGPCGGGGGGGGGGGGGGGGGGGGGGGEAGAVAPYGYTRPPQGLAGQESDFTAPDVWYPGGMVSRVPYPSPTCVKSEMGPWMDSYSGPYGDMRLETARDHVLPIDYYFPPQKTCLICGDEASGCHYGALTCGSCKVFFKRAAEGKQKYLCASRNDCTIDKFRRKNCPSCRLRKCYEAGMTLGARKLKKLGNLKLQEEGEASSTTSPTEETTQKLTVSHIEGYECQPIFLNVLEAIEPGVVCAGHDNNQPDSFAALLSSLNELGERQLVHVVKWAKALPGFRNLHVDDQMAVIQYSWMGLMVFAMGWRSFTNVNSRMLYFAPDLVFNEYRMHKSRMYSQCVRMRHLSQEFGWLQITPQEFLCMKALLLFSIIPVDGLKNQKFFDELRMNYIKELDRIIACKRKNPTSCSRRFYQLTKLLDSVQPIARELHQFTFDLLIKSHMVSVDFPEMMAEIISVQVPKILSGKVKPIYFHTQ

[10] = biological target: T1, Androgen receptor (Homo sapiens); test: (§1) Inhibition of R1881 induced-AR transcriptional activity in AR-positive human 22Rv1 cells harboring ARE14 construct after 24 hrs by luciferase assay
[11] = biological target: T2, Androgen receptor (Homo sapiens, UniProt P10275); test: as §1
T2 sequence (P10275 whole entry): T1 sequence (whole entry)

[12] = biological target: T1, Androgen receptor (Homo sapiens); test: Inhibition of R1881 induced-AR transcriptional activity in AR-positive human 22Rv1 cells harboring ARE14 construct assessed as suppression of NKX3.1 expression at 5 uM after 24 hrs by immunoblot analysis
[13] = biological target: T1, Androgen receptor (Homo sapiens); test: Inhibition of R1881 induced-AR transcriptional activity in AR-positive human 22Rv1 cells harboring ARE14 construct assessed as suppression of PSA expression at 5 uM after 24 hrs by immunoblot analysis
[14] = test system: CWR22R; test: Inhibition of colony formation in AR-positive human 22Rv1 cells harboring ARE14 construct at 0.625 to 10 uM incubated for 10 days by crystal violet staining based analysis; format: functional, cell-based
[15] = biological target: T1, Androgen receptor (Homo sapiens); test: Inhibition of R1881-stimulated AR transcriptional activity in AR-positive human VCaP cells assessed as decrease in NKX3.1 protein expression at 20 uM after 48 hrs by immunoblot analysis; format: cell-based
[16] = biological target: T1, Androgen receptor (Homo sapiens); test: Inhibition of R1881-stimulated AR transcriptional activity in AR-positive human VCaP cells assessed as decrease in PSA protein expression at 20 uM after 48 hrs by immunoblot analysis; format: cell-based
[17] = test system: VCaP; test: Downregulation of AR protein expression in R1881-stimulated AR-positive human VCaP cells at 20 uM after 48 hrs by immunoblot analysis; format: functional, cell-based
[18] = test system: VCaP; test: Induction of apoptosis in R1881-stimulated AR-positive human VCaP cells assessed as PARP cleavage at 20 uM after 24 to 72 hrs by immunoblot analysis; format: functional, cell-based
[19] = test system: VCaP; test: Induction of apoptosis in R1881-stimulated AR-positive human VCaP cells assessed as caspase-3/7 activation at 20 uM using Ac-DEVD-AMC as substrate after 24 to 72 hrs by fluorescence based microplate reader analysis; format: functional, cell-based
[20] = test system: CWR22R; test: Induction of apoptosis in R1881-activated AR-positive human 22Rv1 cells harboring ARE14 construct assessed as cleaved PARP level at 5 uM after 24 hrs by immunoblot analysis; format: functional, cell-based
[21] = test system: CWR22R; test: Antiproliferative activity against AR-positive human 22Rv1 cells harboring ARE14 construct assessed as growth inhibition after 24 hrs by resazurin dye based fluorescence assay; format: functional; conditions: 22Rv1, 24 h
[22] = test system: BJ; test: Antiproliferative activity against human BJ cells assessed as growth inhibition after 24 hrs by resazurin dye based fluorescence assay; format: functional
[23] = biological target: T1, Androgen receptor (Homo sapiens); test: Inhibition of R1881-stimulated AR transcriptional activity in AR-positive human VCaP cells assessed as NKX3.1 protein expression at 20 uM after 24 hrs by immunoblot analysis; format: cell-based
[24] = test system: CWR22R; test: Effect on AR-V7 protein expression in AR-positive human 22Rv1 cells harboring ARE14 construct at 5 uM after 24 hrs by immunoblot analysis; format: functional, cell-based
[25] = biological target: T1, Androgen receptor (Homo sapiens); test: Inhibition of R1881-stimulated AR transcriptional activity in AR-positive human VCaP cells assessed as PSA protein expression at 20 uM after 24 hrs by immunoblot analysis; format: cell-based
[26] = biological target: T1, Androgen receptor (Homo sapiens); conditions: at 10 µM
Description: Inhibition of R1881 induced-AR transcriptional activity in AR-positive human 22Rv1 cells harboring ARE14 construct at 10 uM after 24 hrs by luciferase assay relative to control

GI50 [2]: > 40000 nM
GI50 [3]: > 40000 nM
GI50 [4]: > 40000 nM
SMILES: CNC(=O)c1ccc(N2C(=S)N(c3ccc(C#N)c(C(F)(F)F)c3)C(=O)C2(C)C)cc1F [ENZALUTAMIDE]
GI50 [1]: > 40000 nM
viability at 40 µM [5]: 84%
viability at 40 µM [6]: 91.5%
viability at 40 µM [7]: 61.2%
viability at 40 µM [8]: 74%

GI50 [2]: 1700 nM
GI50 [3]: 2000 nM
GI50 [4]: > 100000 nM
NKX3.1 protein downregulation (active/not active) [9]: Active
inhibition [10]: Dose-dependent effect
IC50 [11]: 315 nM
inhibition [12]: Active
inhibition [13]: Active
inhibition [15]: Active
inhibition [16]: Active
inhibition [23]: inactive
inhibition [25]: inactive
inhibition [26]: 29%
SMILES: CC(=O)O[C@H]1CC[C@@]2(C)C(=CC[C@@H]3[C@@H]2CC[C@]2(C)c4c(C)nc5[nH]c6ccccc6c5c4C[C@@H]32)C1
GI50 [1]: 1400 nM
inhibition [14]: Active
inhibition [17]: Active
Activity [18]: Active
Activity [19]: Active
Activity [20]: inactive
GI50 [21]: > 50000 nM
GI50 [22]: > 50000 nM
Activity [24]: inactive

Reference: ChEMBL document CHEMBL4351016 (Eur J Med Chem, 2019)
